Laboratory results from PubChem BioAssay AID2060509 (Molecular Pharmacology Branch, DTP, NCI, 2025).
pIC50: −log10 of the molar value.

Test system: 485176-168-R4-J1-PDC spheroids with HUVEC/MSC, viability
Experiment: Anticancer human tumor 485176-168-R4-J1-PDC patient-derived pancreatic adenocarcinoma cell line growth inhibition [GQUAD]
Details: for pIC50: curve of first compound; for viability, T/C: stronger effect = lower value
From the text: DNA G-quadruplex Stabilizer Agents in Combinations in Complex Spheroids
A high-throughput screen of multi-cell type tumor spheroids was designed to identify active combinations of DNA G-quadruplex stabilizer agents and targeted small molecules. Complex spheroids include a stromal component modeled by human endothelial cells (HUVEC) and fibroblasts modeled by human mesenchymal stem cells (MSCs). The concentration ranges selected for each drug and investigational agent were based upon clinically achievable concentrations if the clinical Cmax of the agent was known.
Compounds. The drugs and investigational agents: pidnarulex (CX-5461; NSC782164), APTO-253 (NSC789042), BRACO-19 (NSC847499), peposertib (NSC802822), ceralasertib (NSC780249), elimusertib (NSC800525), camonsertib (NSC841442), AZD-1390 (NSC803789), olaparib (NSC753686), talazoparib (NSC767125), ART-558 (NSC835418), sotorasib (NSC818433), MRTX-1133 (NSC836407), SN-38 (NSC673596), topotecan (NSC609699), etoposide (NSC141540), doxorubicin (NSC123127), gemcitabine (NSC613327), 5-fluorouracil (NSC19893), paclitaxel (NSC125973), vemurafenib (NSC761431), panobinostat (NSC761190), R-306465 (JNJ-16241199; NSC773264), adavosertib (NSC754352), TP-3654 (NSC805149), carboplatin (NSC241240), KSQ-4279 (NSC840948), and staurosporine (NSC755774) were obtained from the National Cancer Institute (NCI) Developmental Therapeutics Program Chemical Repository (34). The FDA-approved anticancer drug set is available from the NCI Developmental Therapeutics Program. […] The stock solutions were prepared in dimethyl sulfoxide (DMSO, Sigma-Aldrich, St. Louis, MO, cat. D2650) at 800-fold the tested concentration and stored at -70 degrees C prior to their use. All drugs and investigational agents were tested over a range starting from a high concentration at or near the clinical Cmax and decreasing in half-log increments. If the clinical Cmax for an agent had not been determined, the highest concentration tested was 10 microM.
2.3 Cell Culture. All cells were maintained in an incubator at 37 degrees C and 5% CO2 with 95% humidity. The PDC lines were cultured according to standard operating procedures established by the NCI PDMR. All PDCs were thawed and cultured in Matrigel-coated flasks prepared with a working solution of 1X Ham's F-12 nutrient mix, without supplementation (Invitrogen, cat. 11765054), 100 U/mL penicillin-streptomycin (Invitrogen, cat. 15140122), and 2.5% Matrigel (Corning Inc., cat. 354248) for the first three passages. The 857933-349-R-J2-PDC line was cultured in 6C/Colon 1B media, which includes advanced DMEM/F-12 (Thermo Fisher Scientific, cat. 12634028), 10 mM HEPES (Thermo Fisher Scientific, cat. 15630080), 1X GlutaMAX supplement (Thermo Fisher Scientific, cat. 35050061), 0.1 mg/mL primocin (InvivoGen, cat. ant-pm-2), 10% defined fetal bovine serum, heat inactivated (HyClone Laboratories Inc., cat. SH30070.03HI), 50% L-WRN conditioned media (ATCC, cat. CRL-3276), 1.25 mM N-Acetyl-L-cysteine (Sigma-Aldrich, cat. A9165), 10 mM nicotinamide (Sigma-Aldrich, cat. N0636), 1X B-27 supplement (Thermo Fisher Scientific, cat. 17504044), 1X N-2 supplement (Thermo Fisher Scientific, cat. 17502048), 10 microM Y-27632 dihydrochloride (Tocris Bioscience, cat. 1254), and 50 ng/mL human EGF recombinant protein (Thermo Fisher Scientific, cat. PHG0311). The 485176-168-R4-J1-PDC line was cultured in Panc media, which includes all 6C/Colon 1B media components plus 100 ng/mL human FGF-10 (Thermo Fisher Scientific, cat. 100-26), 500 nM SB-431542 (Selleckchem, cat. S1067), and gastrin (Tocris, cat. 3006).
[…]
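Also: spheroids exposed to compounds for seven days before readout.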
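For viability, T/C in this document: percent viability relative to DMSO vehicle control wells as 100%.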

C=CC(=O)N1CCN(c2nc(=O)n(-c3c(C)ccnc3C(C)C)c3nc(-c4c(O)cccc4F)c(F)cc23)C(C)C1 (configuration not stated) + CN(C)c1ccc(Nc2c3ccc(NC(=O)CCN4CCCC4)cc3nc3cc(NC(=O)CCN4CCCC4)ccc23)cc1
pIC50 (second compound 0.0316 µM): < 5.00
pIC50 (second compound 0.1 µM): < 5.00
pIC50 (second compound 0.316 µM): < 5.00
pIC50 (second compound 1 µM): < 5.00
pIC50 (second compound 3.16 µM): < 5.00
pIC50 (second compound 10 µM): < 5.00
viability, T/C (second compound 0.0316 µM, first compound 0.0316 µM): 111%
viability, T/C (second compound 0.0316 µM, first compound 0.1 µM): 90.2%
viability, T/C (second compound 0.0316 µM, first compound 0.316 µM): 102%
viability, T/C (second compound 0.0316 µM, first compound 1 µM): 98.1%
viability, T/C (second compound 0.0316 µM, first compound 3.16 µM): 120%
viability, T/C (second compound 0.0316 µM, first compound 10 µM): 112%
viability, T/C (second compound 0.1 µM, first compound 0.0316 µM): 88.5%
viability, T/C (second compound 0.1 µM, first compound 0.1 µM): 98.3%
viability, T/C (second compound 0.1 µM, first compound 0.316 µM): 110%
viability, T/C (second compound 0.1 µM, first compound 1 µM): 99.5%
viability, T/C (second compound 0.1 µM, first compound 3.16 µM): 114%
viability, T/C (second compound 0.1 µM, first compound 10 µM): 96.6%
viability, T/C (second compound 0.316 µM, first compound 0.0316 µM): 90.5%
viability, T/C (second compound 0.316 µM, first compound 0.1 µM): 95.7%
viability, T/C (second compound 0.316 µM, first compound 0.316 µM): 96.2%
viability, T/C (second compound 0.316 µM, first compound 1 µM): 101%
viability, T/C (second compound 0.316 µM, first compound 3.16 µM): 119%
viability, T/C (second compound 0.316 µM, first compound 10 µM): 120%
viability, T/C (second compound 1 µM, first compound 0.0316 µM): 128%
viability, T/C (second compound 1 µM, first compound 0.1 µM): 110%
viability, T/C (second compound 1 µM, first compound 0.316 µM): 94.8%
viability, T/C (second compound 1 µM, first compound 1 µM): 108%
viability, T/C (second compound 1 µM, first compound 3.16 µM): 125%
viability, T/C (second compound 1 µM, first compound 10 µM): 98.6%
viability, T/C (second compound 3.16 µM, first compound 0.0316 µM): 108%
viability, T/C (second compound 3.16 µM, first compound 0.1 µM): 95.6%
viability, T/C (second compound 3.16 µM, first compound 0.316 µM): 90.5%
viability, T/C (second compound 3.16 µM, first compound 1 µM): 107%
viability, T/C (second compound 3.16 µM, first compound 3.16 µM): 114%
viability, T/C (second compound 3.16 µM, first compound 10 µM): 108%
viability, T/C (second compound 10 µM, first compound 0.0316 µM): 86.2%
viability, T/C (second compound 10 µM, first compound 0.1 µM): 104%
viability, T/C (second compound 10 µM, first compound 0.316 µM): 86.6%
viability, T/C (second compound 10 µM, first compound 1 µM): 91.1%
viability, T/C (second compound 10 µM, first compound 3.16 µM): 88.2%
viability, T/C (second compound 10 µM, first compound 10 µM): 73.1%
